Patent US9725448B2, “Neprilysin inhibitors” (THERAVANCE BIOPHARMA R&D IP, LLC, priority 2011, dated 2017)

Target: T1, human NEP (Homo sapiens, UniProt P08473)
T1 construct: purchased R&D Systems, Minneapolis, Minn; 1182-ZN
Assay: In vitro enzyme inhibition assay at human NEP (fluorogenic peptide substrate)
Type: biochemical
Conditions: pKi values at human NEP (recombinant), given as ranges
Protocol: The inhibitory activities of compounds at human and rat neprilysin (EC 3.4.24.11; NEP) and human angiotensin converting enzyme (ACE) were determined using in vitro assays as described below.
Recombinant human NEP and recombinant human ACE were obtained commercially (R&D Systems, Minneapolis, Minn., catalog numbers 1182-ZN and 929-ZN, respectively). The fluorogenic peptide substrate Mca-D-Arg-Arg-Leu-Dap-(Dnp)-OH (Medeiros et al. (1997) Braz. J. Med. Biol. Res. 30:1157-62; Anaspec, San Jose, Calif.) and Abz-Phe-Arg-Lys(Dnp)-Pro-OH (Araujo et al. (2000) Biochemistry 39:8519-8525; Bachem, Torrance, Calif.) were used in the NEP and ACE assays respectively.
The assays were performed in 384-well white opaque plates at 37° C. using the fluorogenic peptide substrates at a concentration of 10 μM in Assay Buffer (NEP: 50 mM HEPES, pH 7.5, 100 mM NaCl, 0.01% polyethylene glycol sorbitan monolaurate (Tween-20), […]; ACE: 50 mM HEPES, pH 7.5, 100 mM NaCl, 0.01% Tween-20, 1 μM ZnSO4).
Test compounds were assayed over the range of concentrations from 10 μM to 20 pM. Test compounds were added to the enzymes and incubated for 30 minute at 37° C. prior to initiating the reaction by the addition of substrate. Reactions were terminated after 20 minutes of incubation at 37° C. by the addition of glacial acetic acid to a final concentration of 3.6% (v/v).
Plates were read on a fluorometer with excitation and emission wavelengths set to 320 nm and 405 nm, respectively. Inhibition constants were obtained by nonlinear regression of the data using the equation (GraphPad Software, Inc., San Diego, Calif.): ν=ν0/[1+(I/K′)] where ν is the reaction rate, ν0 is the uninhibited reaction rate, I is the inhibitor concentration and K′ is the apparent inhibition constant.
Compounds of the invention were tested in this assay and found to have pKi values at human NEP as follows.

T1 sequence (P08473 52-750 limits assumed): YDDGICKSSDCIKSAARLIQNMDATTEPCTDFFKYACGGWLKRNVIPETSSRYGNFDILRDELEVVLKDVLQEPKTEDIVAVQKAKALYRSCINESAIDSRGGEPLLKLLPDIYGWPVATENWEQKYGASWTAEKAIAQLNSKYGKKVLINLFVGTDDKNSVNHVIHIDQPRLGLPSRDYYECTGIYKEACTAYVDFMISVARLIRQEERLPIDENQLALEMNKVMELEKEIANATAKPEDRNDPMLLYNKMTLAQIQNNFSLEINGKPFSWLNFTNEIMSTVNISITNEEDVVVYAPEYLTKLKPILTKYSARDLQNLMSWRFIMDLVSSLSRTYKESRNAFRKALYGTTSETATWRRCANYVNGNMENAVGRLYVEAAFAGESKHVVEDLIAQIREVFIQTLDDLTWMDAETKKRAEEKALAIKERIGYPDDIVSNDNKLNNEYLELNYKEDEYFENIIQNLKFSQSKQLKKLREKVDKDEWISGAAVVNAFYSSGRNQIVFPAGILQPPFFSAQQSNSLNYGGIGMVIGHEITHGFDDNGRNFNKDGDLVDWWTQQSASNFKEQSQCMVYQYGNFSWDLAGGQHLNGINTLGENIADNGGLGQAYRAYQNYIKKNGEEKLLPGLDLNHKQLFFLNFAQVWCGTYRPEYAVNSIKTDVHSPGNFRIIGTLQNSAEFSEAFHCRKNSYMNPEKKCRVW

Structure (SMILES)	Ki [nM]
CN(C)C(=O)c1cc(C(=O)NN(Cc2ccc(-c3cccc(Cl)c3)cc2)C[C@@](C)(O)C(=O)O)[nH]n1 [Example 7-9, (R)-3-[N-(3′-Chlorobiphenyl-4-ylmethyl)-N′-(5-dimethylcarbamoyl-2H-pyrazole-3-carbonyl)-hydrazino]-2-hydroxy-2-methyl-propionic acid]	12.6 to 100
C[C@@](O)(CN(Cc1ccc(-c2cccc(Cl)c2)cc1)NC(=O)c1cc(C(=O)O)n[nH]1)C(=O)O [Example 7-10, 5-[N′—((R)-2-Carboxy-2-hydroxy-propyl)-N′-(3′-chlorobiphenyl-4-ylmethyl)-hydrazinocarbonyl]-1H-pyrazole-3-carboxylic acid]	≤ 1
C[C@@](O)(CN(Cc1ccc(-c2cccc(Cl)c2)cc1)NC(=O)c1cc(O)no1)C(=O)O [Example 7-11, (R)-3-[N-(3′-Chlorobiphenyl-4-ylmethyl)-N′-(3-hydroxy-isoxazole-5-carbonyl)-hydrazino]-2-hydroxy-2-methyl-propionic acid]	≤ 1
Cc1ccc(Cl)cc1-c1ccc(CN(C[C@@](C)(O)C(=O)O)NC(=O)c2cc(O)no2)cc1 [Example 7-12, (R)-3-[N-(5′-Chloro-2′-methyl-biphenyl-4-ylmethyl)-N′-(3-hydroxy-isoxazole-5-carbonyl)-hydrazino]-2-hydroxy-2-methyl-propionic acid]	≤ 1
C[C@@](O)(CN(Cc1ccc(-c2cc(Cl)cc(Cl)c2)cc1)NC(=O)c1cc(O)no1)C(=O)O [Example 7-13, (R)-3-[N-(3′,5′-Dichlorobiphenyl-4-ylmethyl)-N′-(3-hydroxy-isoxazole-5-carbonyl)-hydrazino]-2-hydroxy-2-methyl-propionic acid]	12.6 to 100
COc1ccccc1-c1ccc(CN(C[C@@](C)(O)C(=O)O)NC(=O)c2cc(O)no2)cc1 [Example 7-14, (R)-2-Hydroxy-3-[N′-(3-hydroxy-isoxazole-5-carbonyl)-N-(2′-methoxy-biphenyl-4-ylmethyl)-hydrazino]-2-methyl-propionic acid]	1.26 to 10
C[C@@](O)(CN(Cc1ccc(-c2ccccc2Cl)cc1)NC(=O)c1cc(O)no1)C(=O)O [Example 7-15, (R)-3-[N-(2′-Chlorobiphenyl-4-ylmethyl)-N′-(3-hydroxy-isoxazole-5-carbonyl)-hydrazino]-2-hydroxy-2-methyl-propionic acid]	12.6 to 100
C[C@@](O)(CN(Cc1ccc(-c2ccccc2O)cc1)NC(=O)c1cc(O)no1)C(=O)O [Example 7-16, (R)-2-Hydroxy-3-[N-(2′-hydroxy-biphenyl-4-ylmethyl)-N′-(3-hydroxy-isoxazole-5-carbonyl)-hydrazino]-2-methyl-propionic acid]	1.26 to 10
C[C@@](O)(CN(Cc1ccc(-c2ccccc2F)cc1)NC(=O)c1cc(O)no1)C(=O)O [Example 7-17, (R)-3-[N-(2′-Fluorobiphenyl-4-ylmethyl)-N′-(3-hydroxy-isoxazole-5-carbonyl)-hydrazino]-2-hydroxy-2-methyl-propionic acid]	1.26 to 10
C[C@@](O)(CN(Cc1ccc(-c2cc(F)ccc2F)cc1)NC(=O)c1cc(O)no1)C(=O)O [Example 7-18, (R)-3-[N-(2′,5′-Difluorobiphenyl-4-ylmethyl)-N′-(3-hydroxy-isoxazole-5-carbonyl)-hydrazino]-2-hydroxy-2-methyl-propionic acid]	1.26 to 10
C[C@@](O)(CN(Cc1ccc(-c2cc(Cl)ccc2Cl)cc1)NC(=O)c1cc(O)no1)C(=O)O [Example 7-19, (R)-3-[N-(2′,5′-Dichlorobiphenyl-4-ylmethyl)-N′-(3-hydroxy-isoxazole-5-carbonyl)-hydrazino]-2-hydroxy-2-methyl-propionic acid]	≤ 1
C[C@@](O)(CN(Cc1ccc(-c2cccc(F)c2)cc1)NC(=O)c1cc(O)no1)C(=O)O [Example 7-20, (R)-3-[N-(3′-Fluorobiphenyl-4-ylmethyl)-N′-(3-hydroxy-isoxazole-5-carbonyl)-hydrazino]-2-hydroxy-2-methyl-propionic acid]	1.26 to 10
C[C@@](O)(CN(Cc1ccc(-c2cccc(Cl)c2)cc1)NC(=O)c1c[nH]c(=O)o1)C(=O)O [Example 7-21, (R)-3-[N-(3′-Chlorobiphenyl-4-ylmethyl)-N′-(2-oxo-2,3-dihydro-oxazole-5-carbonyl)-hydrazino]-2-hydroxy-2-methyl-propionic acid]	1.26 to 10
C[C@@](O)(CN(Cc1ccc(-c2cc(Cl)ccc2F)cc1)NC(=O)c1c[nH]c(=O)o1)C(=O)O [Example 7-22, (R)-3-[N-(5′-Chloro-2′-fluorobiphenyl-4-ylmethyl)-N′-(2-oxo-2,3-dihydro-oxazole-5-carbonyl)-hydrazino]-2-hydroxy-2-methyl-propionic acid]	1.26 to 10
C[C@@](O)(CN(Cc1ccc(-c2cc(Cl)ccc2F)cc1)NC(=O)c1nnn[nH]1)C(=O)O [Example 7-23, (R)-3-[N-(5′-Chloro-2′-fluorobiphenyl-4-ylmethyl)-N′-(1H-tetrazole-5-carbonyl)-hydrazino]-2-hydroxy-2-methyl-propionic acid]	1.26 to 10
Cc1ccc(Cl)cc1-c1ccc(CN(C[C@@](C)(O)C(=O)O)NC(=O)c2nnn[nH]2)cc1 [Example 7-24, (R)-3-[N-(5′-Chloro-2′-methyl-biphenyl-4-ylmethyl)-N′-(1H-tetrazole-5-carbonyl)-hydrazino]-2-hydroxy-2-methyl-propionic acid]	1.26 to 10
C[C@@](O)(CN(Cc1ccc(-c2cccc(Cl)c2)cc1)NC(=O)c1cnc(O)nc1)C(=O)O [Example 7-25, (R)-3-[N-(3′-Chlorobiphenyl-4-ylmethyl)-N′-(2-hydroxy-pyrimidine-5-carbonyl)-hydrazino]-2-hydroxy-2-methyl-propionic acid]	1.26 to 10
C[C@@](O)(CN(Cc1ccc(-c2cccc(Cl)c2)cc1)NC(=O)c1cc(C(=O)O)ncn1)C(=O)O [Example 7-26, 6-[N′—((R)-2-Carboxy-2-hydroxy-propyl)-N′-(3′-chlorobiphenyl-4-ylmethyl)-hydrazinocarbonyl]-pyrimidine-4-carboxylic acid]	≤ 1
CC(C)(C[C@@H](Cc1ccc(-c2ccccc2)cc1)NC(=O)c1cc(O)no1)C(=O)O [Example 8A, (R)-5-Biphenyl-4-yl-4-[(3-hydroxy-isoxazole-5-carbonyl)-amino]-2,2-dimethyl-pentanoic acid]	≤ 1
CC(C)(C[C@@H](Cc1ccc(-c2ccccc2)cc1)NC(=O)c1cnn[nH]1)C(=O)O [Example 9-1, (R)-5-Biphenyl-4-yl-2,2-dimethyl-4-[(3H-[1,2,3]triazole-4-carbonyl)-amino]-pentanoic acid]	1.26 to 10
CC(C)(C[C@@H](Cc1ccc(-c2ccccc2)cc1)NC(=O)c1nc(O)n[nH]1)C(=O)O [Example 9-3, (R)-5-Biphenyl-4-yl-4-[(5-hydroxy-2H-[1,2,4]triazole-3-carbonyl)-amino]-2,2-dimethyl-pentanoic acid]	1.26 to 10
CC(C)(C[C@@H](Cc1ccc(-c2ccccc2)cc1)NC(=O)c1ncn[nH]1)C(=O)O [Example 9-4, (R)-5-Biphenyl-4-yl-2,2-dimethyl-4-[(2H-[1,2,4]triazole-3-carbonyl)-amino]-pentanoic acid]	12.6 to 100
CC(C)(C[C@@H](Cc1ccc(-c2ccccc2)cc1)NC(=O)c1cnc(O)nc1)C(=O)O [Example 9-5, (R)-5-Biphenyl-4-yl-4-[(2-hydroxy-pyrimidine-5-carbonyl)-amino]-2,2-dimethyl-pentanoic acid]	1.26 to 10
CC(C)(C[C@@H](Cc1ccc(-c2ccccc2)cc1)NC(=O)c1cc(C(=O)O)n[nH]1)C(=O)O [Example 9-6, 5-((R)-1-Biphenyl-4-ylmethyl-3-carboxy-3-methyl-butylcarbamoyl)-1H-pyrazole-3-carboxylic acid]	≤ 1
CC(C)(C[C@@H](Cc1ccc(-c2ccccc2)cc1)NC(=O)c1cc(C(=O)N2CCOCC2)n[nH]1)C(=O)O [Example 9-8, (R)-5-Biphenyl-4-yl-2,2-dimethyl-4-{[5-(morpholine-4-carbonyl)-2H-pyrazole-3-carbonyl]-amino}-pentanoic acid]	12.6 to 100
CC(C)(C[C@@H](Cc1ccc(-c2ccccc2)cc1)NC(=O)c1cc(C(=O)N2CCC(O)C2)n[nH]1)C(=O)O (stereo partly drawn) [Example 9-9, (R)-5-Biphenyl-4-yl-4-{[5-(3-hydroxy-pyrrolidine-1-carbonyl)-2H-pyrazole-3-carbonyl]-amino}-2,2-dimethyl-pentanoic acid]	12.6 to 100
CC(C)(C[C@@H](Cc1ccc(-c2ccccc2)cc1)NC(=O)c1cc(C(=O)N2CCC(O)CC2)n[nH]1)C(=O)O [Example 9-10, (R)-5-Biphenyl-4-yl-4-{[5-(4-hydroxy-piperidine-1-carbonyl)-2H-pyrazole-3-carbonyl]-amino}-2,2-dimethyl-pentanoic acid]	12.6 to 100
